The target of the assay is NMDA receptor (NR1 + NR2 subunits) (Rattus norvegicus, UniProt P35439+Q00960). Briefly: Two electrode voltage clamp recording from Xenopus laevis oocytes (pH dependence of NMDA antagonism). In kind it is cell-based. As for the experimental part:
cRNA was synthesized from linearized template cDNA for rat glutamate receptor subunits according to manufacturer specifications (Ambion). Quality of synthesized cRNA was assessed by gel electrophoresis, and quantity was estimated by spectroscopy and gel electrophoresis. Stage V and VI oocytes were surgically removed from the ovaries of large, well-fed and healthy Xenopus laevis anesthetized with 3-amino-benzoic acid ethyl ester (3 gm/l) as previously described. Clusters of isolated oocytes were incubated with 292 U/ml Worthington (Freehold, N.J.) type IV collagenase or 1.3 mg/ml collagenase (Life Technologies, Gaithersburg, Md.; 17018-029) for 2 hr in Ca^2+-free solution comprised of (in mM) 115 NaCl, 2.5 KCl, and 10 HEPES, pH 7.5, with slow agitation to remove the follicular cell layer. Oocytes were then washed extensively in the same solution supplemented with 1.8 mM CaCl2 and maintained in Barth's solution comprised of (in mM): 88 NaCl, 1 KCl, 2.4 NaHCO3, 10 HEPES, 0.82 MgSO4, 0.33 Ca(NO3)2, and 0.91 CaCl2 and supplemented with 100 μg/ml gentamycin, 10 μg/ml streptomycin, and 10 μg/ml penicillin. Oocytes were manually defolliculated and injected within 24 hrs of isolation with 3-5 ng of NR1 subunit cRNA and 7-10 ng of NR2 cRNA subunit in a 50 nl volume, or 5-10 ng of AMPA or kainate receptor cRNAs in a 50 nl volume, and incubated in Barth's solution at 18° C. for 1-7 d. Glass injection pipettes had tip sizes ranging from 10-20 microns, and were backfilled with mineral oil.
Two electrode voltage-clamp recordings were made 2-7 days post-injection as previously described. Oocytes were placed in a dual-track plexiglass recording chamber with a single perfusion line that splits in a Y-configuration to perfuse two oocytes. Dual recordings were made at room temperature (23° C.) using two Warner OC725B two-electrode voltage clamp amplifiers, arranged as recommended by the manufacturer. Glass microelectrodes (1-10 Megaohms) were filled with 300 mM KCl (voltage electrode) or 3 M KCl (current electrode). The bath clamps communicated across silver chloride wires placed into each side of the recording chamber, both of which were assumed to be at a reference potential of 0 mV. Oocytes were perfused with a solution comprised of (in mM) 90 NaCl, 1 KCl, 10 HEPES, and 0.5 BaCl2; pH was adjusted by addition of 1-3 M NaOH of HCl. Oocytes were recorded under voltage clamp at −40 mV. Final concentrations for control application of glutamate (50 μM) plus glycine (30 μM) were achieved by adding appropriate volumes from 100 and 30 mM stock solutions, respectively. In addition, 10 μM final EDTA was obtained by adding a 1:1000 dilution of 10 mM EDTA, in order to chelate contaminant divalent ions such as Zn^2+. Concentration-response curves for experimental compounds were obtained by applying in successive fashion maximal glutamate/glycine, followed by glutamate/glycine plus variable concentrations of experimental compounds. Dose response curves consisting of 4 to 8 concentrations were obtained in this manner. The baseline leak current at −40 mV was measured before and after recording, and the full recording linearly corrected for any change in leak current. Oocytes with glutamate-evoked responses smaller than 50 nA were not included in the analysis. The level of inhibition by applied experimental compounds was expressed as a percent of the initial glutamate response, and averaged together across oocytes from a single frog. Each experiment consisted of recordings from 3 to 10 oocytes obtained from a single frog. Results from 3-6 experiments were pooled, and the average percent responses at antagonist concentrations were fitted by the equation,
Percent Response=(100−minimum)/(1+([conc]/IC50)^nH)+minimum […]

[1] abbreviates: pH 6.9, Table 19, read-out: IC50 at pH 6.9.
The mark [2] stands for this setting: pH 7.6, Table 19, read-out: IC50 at pH 7.6.
Where [3] appears, read: pH 6.9, Table 18, read-out: IC50 at pH 6.9.
Where [4] appears, read: pH 7.6, Table 18, read-out: IC50 at pH 7.6.
The mark [5] stands for this setting: pH 6.9, Table 17, read-out: IC50 at pH 6.9.
[6] abbreviates: pH 7.6, Table 17, read-out: IC50 at pH 7.6.
Setting [7] is: pH 6.9, Table 20, read-out: IC50 at pH 6.9.
Setting [8] is: pH 7.6, Table 20, read-out: IC50 at pH 7.6.
The mark [9] stands for this setting: pH 6.9, Table 21, read-out: IC50 at pH 6.9.
The mark [10] stands for this setting: pH 7.6, Table 21, read-out: IC50 at pH 7.6.

Our source for the IC50 values is patent US20110160223A1, “NMDA Receptor Antagonists for the Treatment of Neuropsychiatric Disorders” (priority 2008, published 2011).

Like-named read-outs stand apart in the source and are kept apart here.

Sequence of NMDA receptor (NR1 + NR2 subunits) (Q00960 27-1482, other chains not shown): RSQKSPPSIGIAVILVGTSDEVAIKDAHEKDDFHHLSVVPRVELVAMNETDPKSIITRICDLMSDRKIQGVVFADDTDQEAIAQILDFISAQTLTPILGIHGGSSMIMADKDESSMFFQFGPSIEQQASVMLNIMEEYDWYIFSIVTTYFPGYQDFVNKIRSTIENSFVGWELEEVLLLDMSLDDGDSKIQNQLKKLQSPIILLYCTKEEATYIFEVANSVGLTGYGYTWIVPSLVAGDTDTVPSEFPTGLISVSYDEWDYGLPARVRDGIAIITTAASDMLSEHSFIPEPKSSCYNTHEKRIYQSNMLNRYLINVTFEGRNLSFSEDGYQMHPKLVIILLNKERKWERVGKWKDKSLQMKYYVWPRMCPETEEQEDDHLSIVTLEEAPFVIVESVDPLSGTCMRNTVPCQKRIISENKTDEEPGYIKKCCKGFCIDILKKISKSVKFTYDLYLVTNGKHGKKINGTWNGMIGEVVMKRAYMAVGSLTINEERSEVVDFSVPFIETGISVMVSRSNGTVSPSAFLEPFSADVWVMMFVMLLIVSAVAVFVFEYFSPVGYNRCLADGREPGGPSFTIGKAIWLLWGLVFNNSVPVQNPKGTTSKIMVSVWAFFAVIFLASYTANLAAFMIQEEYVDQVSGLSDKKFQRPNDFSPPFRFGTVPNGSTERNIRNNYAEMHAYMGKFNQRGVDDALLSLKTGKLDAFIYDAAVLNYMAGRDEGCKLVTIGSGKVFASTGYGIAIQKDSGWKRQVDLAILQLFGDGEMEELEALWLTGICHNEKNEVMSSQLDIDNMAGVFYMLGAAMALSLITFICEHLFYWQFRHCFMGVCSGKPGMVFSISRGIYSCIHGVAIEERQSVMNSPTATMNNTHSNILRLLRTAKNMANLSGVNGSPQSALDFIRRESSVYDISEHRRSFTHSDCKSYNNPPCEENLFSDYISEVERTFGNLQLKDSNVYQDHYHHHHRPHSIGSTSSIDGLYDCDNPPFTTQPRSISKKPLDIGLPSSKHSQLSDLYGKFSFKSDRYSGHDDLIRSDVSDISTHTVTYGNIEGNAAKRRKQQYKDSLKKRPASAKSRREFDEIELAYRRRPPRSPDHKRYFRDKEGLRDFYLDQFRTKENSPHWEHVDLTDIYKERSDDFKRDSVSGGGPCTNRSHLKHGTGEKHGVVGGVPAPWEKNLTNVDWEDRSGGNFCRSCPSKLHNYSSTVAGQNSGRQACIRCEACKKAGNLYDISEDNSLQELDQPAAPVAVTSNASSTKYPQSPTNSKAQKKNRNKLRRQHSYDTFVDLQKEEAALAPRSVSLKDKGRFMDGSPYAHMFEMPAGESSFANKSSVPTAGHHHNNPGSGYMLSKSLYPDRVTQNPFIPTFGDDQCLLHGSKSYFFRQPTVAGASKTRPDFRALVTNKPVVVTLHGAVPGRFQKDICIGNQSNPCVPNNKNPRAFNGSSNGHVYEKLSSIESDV

For `Oc1ccc(OCC(O)CN2CCN(c3ccccc3Cl)CC2)cc1` (centres unmarked), the half-maximal inhibitory concentration (IC50) under setting [1] came to 978 nM and the IC50 under setting [2] turned out to be 4390 nM.

For `O=c1[nH]c2ccc(OCC(O)CNCCc3ccc(Cl)c(Cl)c3)cc2o1` (centres unmarked), the IC50 reads like this: under setting [3], 185 nM; under setting [4], 446 nM.

Consider `O=c1[nH]c2ccc(OCC(O)CN3CCN(c4ccc(Cl)cc4)CC3)cc2o1` (centres unmarked), for which the IC50 is, setting by setting: under setting [3], 79 nM; under setting [4], 726 nM.

As to `CS(=O)(=O)Nc1ccc(OCC(O)CN2CCN(c3ccccn3)CC2)cc1` (centres unmarked), the IC50 by setting is: under setting [5], 1810 nM; under setting [6], 12700 nM.

As for `Oc1ccc(OCC(O)CNCCc2ccc(Cl)c(Cl)c2)cc1F` (centres unmarked), the IC50 by setting is: under setting [1], 114 nM; under setting [2], 549 nM.

For `NC(=O)Nc1ccc(OC[C@@H](O)CN2CCN(c3ccc(Cl)cc3)CC2)cc1` [drawing 755], the IC50 under setting [7] is 46 nM and the IC50 under setting [8] was 452 nM.

Consider `Cc1ccc(N2CCN(C[C@@H](O)COc3ccc4[nH]c(=O)oc4c3)CC2)cc1`, for which the IC50 under setting [3] was 72 nM and the IC50 under setting [4] came to 644 nM.

With `CS(=O)(=O)Nc1ccc(CCC(=O)N2CCN(c3ccc(Cl)c(Cl)c3)CC2)cc1`, the IC50 is, setting by setting: under setting [9], 670 nM; under setting [10], 5330 nM.

On to `Oc1ccc(OCC(O)CNCCc2ccc(Cl)c(Cl)c2)c(F)c1` (centres unmarked), for which the IC50 is 116 nM under setting [1] and 330 nM under setting [2].

For the molecule `CS(=O)(=O)Nc1ccc(OCC(=O)NCCNc2ccc(Cl)c(Cl)c2)cc1`, the IC50 runs as follows: under setting [9], 13 nM; under setting [10], 58 nM.

Regarding `O=c1[nH]c2ccc(OCC(O)CNCCNc3ccc(Cl)cc3)cc2o1` (centres unmarked), the IC50 runs as follows: under setting [3], 25 nM; under setting [4], 97 nM.

`Oc1ccc(OCC(O)CNCCc2ccc(Cl)c(Cl)c2)cc1` (centres unmarked): the IC50 by setting is: under setting [1], 197 nM; under setting [2], 501 nM.

For the molecule `CCCCN(C/C=C/c1ccc(Cl)c(Cl)c1)CC(O)COc1ccc(NS(C)(=O)=O)cc1` (centres unmarked), the IC50 runs as follows: under setting [5], 163 nM; under setting [6], 2580 nM.

`Oc1ccc(OC[C@H](O)CN2CCN(c3cccc(F)c3)CC2)cc1`: the IC50 is 211 nM under setting [1] and 598 nM under setting [2].

Take `Oc1ccc(OCC(O)CN2CCN(c3ccc(C(F)(F)F)cc3)CC2)cc1` (centres unmarked): the IC50 is 113 nM under setting [1] and 448 nM under setting [2].

As for `CS(=O)(=O)Nc1ccc(CCCN2CCN(c3ccc(Cl)c(Cl)c3)CC2)cc1`, the IC50 reads like this: under setting [9], 230 nM; under setting [10], 2730 nM.

In the case of `NC(=O)Nc1ccc(OCCCN2CCN(c3ccc(F)cc3)CC2)cc1`, the IC50 under setting [7] turned out to be 117 nM and the IC50 under setting [8] is 625 nM.

As for `Oc1ccc(OCC(O)CN2CCN(c3ccccc3)CC2)cc1` (centres unmarked), the IC50 came to 217 nM under setting [1] and 476 nM under setting [2].

Turning to `Oc1ccc(OC[C@H](O)CN2CCN(c3ccccc3F)CC2)cc1`, the IC50 under setting [1] came to 541 nM and the IC50 under setting [2] was 1730 nM.

`O[C@H](COc1ccc2[nH]ccc2c1)CN1CCN(c2ccc(Cl)cc2)CC1`: the IC50 reads like this: (pH 6.9, Table 22, read-out: IC50 pH 6.9) over 10000 nM; (pH 7.6, Table 22, read-out: IC50 pH 7.6) over 10000 nM.

As for `CS(=O)(=O)Nc1ccc(OCC(O)CN2CCN(c3ccccc3)CC2)cc1` (centres unmarked), the IC50 reads like this: under setting [5], 213 nM; under setting [6], 1020 nM.

Turning to `Oc1ccc(OC[C@H](O)CN2CCN(c3ccc(F)cc3F)CC2)cc1`, the IC50 is 529 nM under setting [1] and 3560 nM under setting [2].

Turning to `Oc1ccc(OCC(O)CN2CCN(c3ccc(F)c(F)c3)CC2)cc1` (centres unmarked), the IC50 came out at 87 nM under setting [1] and 980 nM under setting [2].

For the molecule `CS(=O)(=O)Nc1ccc(CCC(=O)NCCNc2ccc(Cl)c(Cl)c2)cc1`, the IC50 worked out at 30 nM under setting [9] and 55 nM under setting [10].

For the molecule `CS(=O)(=O)Nc1ccc(OCC(O)CNCCNc2ccc(Cl)c(Cl)c2)cc1` (centres unmarked), the IC50 was 12 nM under setting [5] and 62 nM under setting [6].

`CS(=O)(=O)Nc1ccc(OCC(O)CN2CCN(c3ccc(F)c(F)c3)CC2)cc1` (centres unmarked): the IC50 came out at 31 nM under setting [5] and 557 nM under setting [6].

As for `CS(=O)(=O)Nc1ccc(CCCN2CCN(c3ccc(Cl)c(Cl)c3)C2=O)cc1`, the half-maximal inhibitory concentration (IC50) reads like this: under setting [9], 160 nM; under setting [10], 809 nM.

Regarding `Oc1ccc(OCC(O)CN2CCN(c3cccc(C(F)(F)F)c3)CC2)cc1` (centres unmarked), the IC50 under setting [1] was 386 nM and the IC50 under setting [2] turned out to be 3790 nM.

In the case of `CS(=O)(=O)Nc1ccc(OCC(=O)N2CCN(c3ccc(Cl)c(Cl)c3)CC2)cc1`, the IC50 is, setting by setting: under setting [9], 40 nM; under setting [10], 129 nM.

In the case of `O=C(COc1ccc(O)cc1)NCCNc1ccc(Cl)c(Cl)c1`, the IC50 is 280 nM under setting [9] and 515 nM under setting [10].

With `NC(=O)Nc1ccc(OCCCN2CCN(c3ccc(F)c(F)c3)CC2)cc1`, the 50% inhibitory concentration (IC50) was 82 nM under setting [7] and 696 nM under setting [8].

For `Cc1ccccc1N1CCN(C[C@@H](O)COc2ccc(O)cc2)CC1`, the IC50 is 430 nM under setting [1] and 3930 nM under setting [2].

Turning to `CS(=O)(=O)Nc1ccc(OCC(O)CN2CCN(c3ccncc3)CC2)cc1` (centres unmarked), the IC50 was over 30000 nM under setting [5] and over 30000 nM under setting [6].

Consider `CS(=O)(=O)Nc1ccc(OCCNCCNc2ccc(Cl)c(Cl)c2)cc1`, for which the half-maximal inhibitory concentration (IC50) is 14 nM under setting [9] and 36 nM under setting [10].

As to `O=C(COc1ccc2[nH]c(=O)oc2c1)N1CCN(c2ccc(Cl)c(Cl)c2)CC1` [drawing 768], the IC50 was determined as 41 nM under setting [9] and 45 nM under setting [10].

Consider `Oc1ccc(OCC(O)CN2CCN(c3ccc(O)cc3)CC2)cc1` (centres unmarked), for which the IC50 under setting [1] came out at 576 nM and the IC50 under setting [2] amounted to 4700 nM.

As to `O=c1[nH]c2ccc(OC[C@H](O)CN3CCN(c4ccc(Cl)c(Cl)c4)CC3)cc2o1`, the IC50 by setting is: under setting [3], 185 nM; under setting [4], 1500 nM.

`CS(=O)(=O)Nc1ccc(OCC(O)CN2CCN(c3ccc(Cl)c(Cl)c3)CC2)cc1` (centres unmarked): the IC50 is, setting by setting: under setting [5], 296 nM; under setting [6], 1020 nM.

For `CS(=O)(=O)Nc1ccc(OCC(O)CNC/C=C/c2ccc(Cl)c(Cl)c2)cc1` (centres unmarked), the IC50 by setting is: under setting [5], 7 nM; under setting [6], 38 nM.

With `CS(=O)(=O)Nc1ccc(OCC(O)CNC/C=C/c2ccc(F)c(F)c2)cc1` (centres unmarked), the IC50 was 38 nM under setting [5] and 71 nM under setting [6].

For `O=c1[nH]c2ccc(OC[C@H](O)CN3CCN(c4ccc(F)c(F)c4)CC3)cc2o1`, the IC50 is, setting by setting: under setting [3], 145 nM; under setting [4], 1700 nM.

Consider `CCCCN(CCc1ccc(Cl)c(Cl)c1)CC(O)COc1ccc(O)cc1` (centres unmarked), for which the IC50 is, setting by setting: under setting [1], 585 nM; under setting [2], 6500 nM.

As to `O=C(COc1ccc2[nH]c(=O)oc2c1)NCCNc1ccc(Cl)c(Cl)c1`, the IC50 runs as follows: under setting [9], 80 nM; under setting [10], 150 nM.

For `CS(=O)(=O)Nc1ccc(CCCNCCNc2ccc(Cl)c(Cl)c2)cc1`, the IC50 came to 2 nM under setting [9] and 21 nM under setting [10].

With `Oc1ccc(OC[C@H](O)CN2CCN(c3cccc(Cl)c3)CC2)cc1`, the IC50 reads like this: under setting [1], 257 nM; under setting [2], 4800 nM.

With `Oc1ccc(OCC(O)CN2CCN(c3ccc(-c4ccccc4)cc3)CC2)cc1` (centres unmarked), the IC50 under setting [1] is 6950 nM and the IC50 under setting [2] came out at 191000 nM.

For `Oc1ccc(OC[C@H](O)CN2CCN(c3ccc(Cl)c(Cl)c3)CC2)cc1`, the 50% inhibitory concentration (IC50) runs as follows: under setting [1], 131 nM; under setting [2], 611 nM.

With `O=C(COc1ccc2[nH]c(=O)oc2c1)N1CCN(c2ccc(Cl)cc2)CC1`, the IC50 by setting is: under setting [9], 189 nM; under setting [10], 243 nM.

For `O=C(COc1ccc2[nH]c(=O)oc2c1)N1CCN(c2ccc(F)c(F)c2)CC1`, the IC50 was found to be 307 nM under setting [9] and 467 nM under setting [10].

As usually defined, the IC50 is the concentration needed to halve the response being measured.
